Key:
myofibroblast formation = conditions: Ajmal et al. (2003) Plast. Reconstr. Surg. 112:1455-1461; cited from earlier work
[1] = in vitro elution of rifampin and minocycline from p22-27.5 polymers with TXA in release media (Example 15); assay type: physicochemical; conditions: PBS pH 7.4 without or with TXA 0.05 mg/mL or 5 mg/mL, over 25 hours
Method: B1=PBS pH 7.4; B2=PBS, pH 7.4+TXA (0.05 mg/mL); B3=PBS, pH 7.4+TXA (5 mg/mL).

[2] = stability of rifampin and minocycline in PBS with and without tranexamic acid (Example 14); assay type: physicochemical; conditions: regardless of temperature (RT about 23° C. and 37° C.)
Method: The mixtures were tested both at room temperature (RT) (about 23° C.) and at 37° C.

[3] = given preoperatively; cited from earlier work
blood [4] = experiment: in vitro time required to induce blood clotting (Example 18); assay type: biochemical; conditions: 1.2 mg of TXA alone
Method: Tests were conducted to compare the time required for different hemostatic agents to induce blood clotting in vitro versus the time required to induce blood clotting in vitro when no hemostatic agent is administered. In particular, the time required to induce blood clotting was plotted for blood alone, a polymer in the p22-xx family (P22-27.5-TYRX), Surgicel, a polymer in the p22-xx family (P22-27.5-TYRX) with 1.6 mg of TXA, 1.2 mg of TXA alone and a polymer in the p22-xx family (P22-27.5-TYRX) with X mg of TXA.
Tests were conducted to compare the time required for different hemostatic agents to induce blood clotting in vitro versus the time required to induce blood clotting in vitro when no hemostatic agent is administered. In particular, the time required to induce blood clotting was plotted for blood alone, TYRX, Surgicel, TYRX with 1.6 mg of TXA, 1.2 mg of TXA alone and TYRX with 200 mg of TXA. In this example, TYRX refers to a Glycoprene mesh that is coated with P22-27.5 (a polymer in the P22-X family) containing Rifampin and Minocycline.

blood [5] = experiment: in vitro blood clotting time with different amounts of TXA in presence of TYRX (Example 17); assay type: biochemical; conditions: higher amounts of TXA (1.6 mg TXA vs 200 mg of TXA), in the presence of TYRX
Method: Tests were conducted to compare the time required to induce blood clotting in vitro when different amounts of hemostatic agent is administered in the presence of TYRX (degradable mesh coated with P22-27.5 containing rifampin and minocycline), as shown in FIG. 40. Clotting time was […] when higher amounts of TXA was present (1.6 mg TXA vs 200 mg of TXA), as shown below in FIG. 44.

Structure (SMILES): O=S(=O)([O-])CCS.[Na+] [MESNA, sodium 2-mercaptoethane sulfonate]
- myofibroblast formation (myofibroblast formation): diminish myofibroblast formation

Structure (SMILES): CO[C@H]1/C=C/O[C@@]2(C)Oc3c(C)c(O)c4c(O)c(c(/C=N/N5CCN(C)CC5)c(O)c4c3C2=O)NC(=O)/C(C)=C\C=C\[C@H](C)[C@H](O)[C@@H](C)[C@@H](O)[C@@H](C)[C@H](OC(C)=O)[C@@H]1C [rifampin]
- elution rates, effect of TXA in the release media [1]: not effected
- percentage area of rifampin, mixtures with vs without tranexamic acid [2]: substantially the same

Structure (SMILES): NC[C@H]1CC[C@H](C(=O)O)CC1 [tranexamic acid]
- time to reach plasma concentrations [3]: 5 to 15 min
- time to induce blood clotting (blood [4]): about 19 minutes
- Clotting time (blood [5]): increased
